These results are taken from patent US20240239861A1, “GLUCAGON-RECEPTOR SELECTIVE POLYPEPTIDES AND METHODS OF USE THEREOF” (i2O Therapeutics, Inc., priority 2016, published 2024).

Like-named read-outs stand apart in the source and are kept apart here. Where a SMILES comes first, the peptide text is derived from it. [ ]: non-standard residue; d: D form. Aib = CC(C)(N)C(=O)O

One data set deals with human GCGR (Homo sapiens, UniProt P47871). Put plainly: Peptide-receptor mediated cAMP accumulation (LANCE Ultra cAMP) in CHO-K1 cells transfected with human GCGR. Type of data set: cell-based. (Cyclic AMP is a second messenger, typically raised through Gs and lowered through Gi signalling.)
Sequence of human GCGR (P47871 26-477): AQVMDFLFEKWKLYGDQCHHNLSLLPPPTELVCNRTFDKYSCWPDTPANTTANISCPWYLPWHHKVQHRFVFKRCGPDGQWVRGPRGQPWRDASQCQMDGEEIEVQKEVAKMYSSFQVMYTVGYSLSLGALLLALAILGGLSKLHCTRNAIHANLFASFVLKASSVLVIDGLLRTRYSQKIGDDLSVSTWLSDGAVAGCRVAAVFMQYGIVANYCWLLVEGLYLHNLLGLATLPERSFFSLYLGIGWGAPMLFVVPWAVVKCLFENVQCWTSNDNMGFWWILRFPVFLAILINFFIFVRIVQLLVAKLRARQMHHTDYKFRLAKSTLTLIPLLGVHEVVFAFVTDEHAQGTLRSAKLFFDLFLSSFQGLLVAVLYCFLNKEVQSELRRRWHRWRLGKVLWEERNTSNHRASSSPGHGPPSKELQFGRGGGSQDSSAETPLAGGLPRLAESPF
The target of another data set is human GLP-1R (Homo sapiens, UniProt P43220). Description: Peptide-receptor mediated cAMP accumulation (LANCE Ultra cAMP) in CHO-K1 cells transfected with human GLP-1R. In kind it is cell-based.
Sequence of human GLP-1R (P43220 24-463): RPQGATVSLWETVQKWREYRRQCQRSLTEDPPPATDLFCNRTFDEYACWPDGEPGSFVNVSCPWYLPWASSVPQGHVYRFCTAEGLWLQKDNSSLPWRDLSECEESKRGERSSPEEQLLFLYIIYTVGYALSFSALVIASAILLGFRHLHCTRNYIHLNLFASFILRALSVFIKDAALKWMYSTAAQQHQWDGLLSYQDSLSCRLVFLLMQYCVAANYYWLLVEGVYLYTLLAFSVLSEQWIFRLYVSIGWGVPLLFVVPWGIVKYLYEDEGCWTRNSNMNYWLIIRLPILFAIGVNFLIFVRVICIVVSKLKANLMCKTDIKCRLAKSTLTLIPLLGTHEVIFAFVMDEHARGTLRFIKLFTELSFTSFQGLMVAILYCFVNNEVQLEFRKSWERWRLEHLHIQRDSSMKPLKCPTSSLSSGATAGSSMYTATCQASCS
Another data set is described as follows: in vivo. As to conditions: male, rat.
A short description of data set [1]: Solubility in water or saline at room temperature, visual inspection. In kind it is physicochemical. Particulars: Solubility in water mg/ml. The text has this: Samples were visually inspected for clarity of the sample, any appearance of turbidity or haziness.
Data set [2] can be described thus: Clearance following intravenous infusion, acylated peptides (1-hour infusion, 0.033 mg/kg). Particulars: rat, in vivo.
The mark [3] stands for this setting: hGLP1 pEC50 (cAMP mean (n = 3): 11 point curve starting at 1 nM, Table 3).

Experimental for in vivo: Peptides were formulated in sterile saline and administered as a 3-hour intravenous infusion to non-fasted male Wistar Han or Sprague-Dawley rats (n=3 per group) via jugular vein cannula at a final dose of 0.3 or 0.1 mg/kg. […] Plasma was prepared by centrifugation and stored at −80° C. until analysis.
Protein Precipitation: All 96-well plates were coated with a blocking agent to mitigate non-specific binding of peptides. Plasma samples (75 uL) were added to a 96-well plate containing 200 uL of 2:1 ethanol:acetonitrile containing 0.1% TFA and mixed well via aspiration. Plates were capped, vortex-mixed and centrifuged. Supernatants (215 uL) were transferred to a clean 96-well plate, evaporated to dryness under nitrogen flow and then reconstituted in 75 μL of 20% acetonitrile in water containing 0.10% formic acid.
Solid-Phase Extraction: Samples were diluted 3-fold with 5% NH4OH (aq) and loaded onto an Oasis MAX microElution plate (Waters Corp, Milford, MA) that had been pre-conditioned with 200 uL each of methanol and 5% NH4OH (aq). The plate was washed with 200 uL 5% NH4OH (aq), followed by 200 uL 20% acetonitrile in water. […] Samples were reconstituted in 80 uL 0.1% formic acid in water.
All calibration standards were prepared in control rat plasma containing K2EDTA and protease inhibitor cocktail. […] Samples were injected onto a 2.1×50 mm reverse phase C18 analytical column, typically a Waters ACQUITY UPLC™ HSS T3, 1.8 μm (Waters Corporation, Milford, MA) or similar. […] Typical flow rates were 600 L/min. The column temperature was held constant at 40 or 45° C. Peptides were quantified my monitoring one or more product ions produced from a multiply charged parent ion.

On to `CC(C)C[C@H](NC(=O)[C@H](Cc1ccc(O)cc1)NC(=O)[C@H](CCCCN)NC(=O)[C@H](CO)NC(=O)[C@H](Cc1ccc(O)cc1)NC(=O)[C@H](CC(=O)O)NC(=O)[C@H](CO)NC(=O)[C@@H](NC(=O)[C@H](Cc1ccccc1)NC(=O)[C@@H](NC(=O)CNC(=O)[C@H](Cc1c[nH]cn1)NC(=O)[C@H](CO)NC(=O)[C@@H](N)Cc1ccc(O)cc1)[C@@H](C)O)[C@@H](C)O)C(=O)N[C@@H](CC(=O)O)C(=O)N[C@@H](CCCCN)C(=O)N[C@@H](C)C(=O)N[C@@H](CCCNC(=N)N)C(=O)N[C@@H](C)C(=O)N[C@@H](CCC(N)=O)C(=O)N[C@@H](CCC(=O)O)C(=O)N[C@@H](Cc1ccccc1)C(=O)N[C@H](C(=O)N[C@@H](CCCCN)C(=O)N[C@@H](Cc1c[nH]c2ccccc12)C(=O)N[C@@H](CC(C)C)C(=O)N[C@@H](CCC(=O)O)C(=O)N[C@@H](CC(=O)O)C(=O)N[C@@H](CCC(=O)O)C(=O)N1CCC[C@H]1C(=O)N[C@@H](CO)C(=O)N[C@@H](CO)C(=O)NCC(=O)N[C@@H](C)C(=O)N1CCC[C@H]1C(=O)N1CCC[C@H]1C(=O)N1CCC[C@H]1C(=O)N[C@@H](CO)C(=O)O)C(C)C` [Compound A43] (H-YSHGTFTSDYSKYLDKARAQEFVKWLEDEPSSGAPPPS-OH; N-terminus assumed), for which the EC50 on human GCGR (Table 3) was 0.00158 nM; on human GLP-1R (setting [3]) it was greater than 1 nM. Also, the clearance in the data set “in vivo” turned out to be 2.82 L/h/kg.
Take `CC(C)C[C@H](NC(=O)[C@H](Cc1ccc(O)cc1)NC(=O)[C@H](CCCCN)NC(=O)[C@H](CO)NC(=O)[C@H](Cc1ccc(O)cc1)NC(=O)[C@H](CC(=O)O)NC(=O)[C@H](CO)NC(=O)[C@@H](NC(=O)[C@H](Cc1ccccc1)NC(=O)[C@@H](NC(=O)CNC(=O)[C@H](Cc1c[nH]cn1)NC(=O)[C@H](CO)NC(=O)[C@@H](N)Cc1ccc(O)cc1)[C@@H](C)O)[C@@H](C)O)C(=O)N[C@@H](CC(=O)O)C(=O)N[C@@H](CCC(N)=O)C(=O)N[C@@H](C)C(=O)N[C@@H](CCCNC(=N)N)C(=O)N[C@@H](C)C(=O)N[C@@H](CCC(N)=O)C(=O)N[C@@H](CCC(=O)O)C(=O)N[C@@H](Cc1ccccc1)C(=O)N[C@H](C(=O)N[C@@H](CCCCN)C(=O)N[C@@H](Cc1c[nH]c2ccccc12)C(=O)N[C@@H](CC(C)C)C(=O)N[C@@H](CCC(=O)O)C(=O)N[C@@H](CC(=O)O)C(=O)N[C@@H](CCC(=O)O)C(=O)N1CCC[C@H]1C(=O)N[C@@H](CO)C(=O)N[C@@H](CO)C(=O)NCC(=O)N[C@@H](C)C(=O)N1CCC[C@H]1C(=O)N1CCC[C@H]1C(=O)N1CCC[C@H]1C(=O)N[C@@H](CO)C(=O)O)C(C)C` [Compound A44] (H-YSHGTFTSDYSKYLDQARAQEFVKWLEDEPSSGAPPPS-OH; N-terminus assumed): the results for the EC50 on human GCGR (Table 3) and on human GLP-1R (setting [3]) were 0.00126 nM and greater than 1 nM, respectively. In addition, the clearance in “in vivo” worked out at 1.43 L/h/kg.
Turning to `CC(C)C[C@H](NC(=O)[C@H](Cc1ccc(O)cc1)NC(=O)[C@H](CCCCN)NC(=O)[C@H](CO)NC(=O)[C@H](Cc1ccc(O)cc1)NC(=O)[C@H](CC(=O)O)NC(=O)[C@H](CO)NC(=O)[C@@H](NC(=O)[C@H](Cc1ccccc1)NC(=O)[C@@H](NC(=O)CNC(=O)[C@H](Cc1c[nH]cn1)NC(=O)[C@H](CO)NC(=O)[C@@H](N)Cc1ccc(O)cc1)[C@@H](C)O)[C@@H](C)O)C(=O)N[C@@H](CC(=O)O)C(=O)N[C@@H](CO)C(=O)N[C@@H](C)C(=O)N[C@@H](CCCNC(=N)N)C(=O)N[C@@H](C)C(=O)N[C@@H](CCC(N)=O)C(=O)N[C@@H](CCC(=O)O)C(=O)N[C@@H](Cc1ccccc1)C(=O)N[C@H](C(=O)N[C@@H](CCCCN)C(=O)N[C@@H](Cc1c[nH]c2ccccc12)C(=O)N[C@@H](CC(C)C)C(=O)N[C@@H](CCC(=O)O)C(=O)N[C@@H](CC(=O)O)C(=O)N[C@@H](CCC(=O)O)C(=O)N1CCC[C@H]1C(=O)N[C@@H](CO)C(=O)N[C@@H](CO)C(=O)NCC(=O)N[C@@H](CCCCN)C(=O)N1CCC[C@H]1C(=O)N1CCC[C@H]1C(=O)N1CCC[C@H]1C(=O)N[C@@H](CO)C(=O)O)C(C)C` [Compound A61] (H-YSHGTFTSDYSKYLDSARAQEFVKWLEDEPSSGKPPPS-OH; N-terminus assumed), the EC50 on human GCGR (Table 3) is 0.00398 nM; at human GLP-1R (setting [3]), greater than 1 nM. Further, in the data set “in vivo”, the clearance is 1.76 L/h/kg.
Turning to `CC(C)C[C@H](NC(=O)[C@H](Cc1ccc(O)cc1)NC(=O)[C@H](CCCCN)NC(=O)[C@H](CO)NC(=O)[C@H](Cc1ccc(O)cc1)NC(=O)[C@H](CC(=O)O)NC(=O)[C@H](CO)NC(=O)[C@@H](NC(=O)[C@H](Cc1ccccc1)NC(=O)[C@@H](NC(=O)CNC(=O)[C@H](Cc1c[nH]cn1)NC(=O)[C@H](CO)NC(=O)[C@@H](N)Cc1ccc(O)cc1)[C@@H](C)O)[C@@H](C)O)C(=O)N[C@@H](CC(=O)O)C(=O)N[C@@H](CO)C(=O)N[C@@H](C)C(=O)N[C@@H](CCCNC(=N)N)C(=O)N[C@@H](C)C(=O)N[C@@H](CCC(N)=O)C(=O)N[C@@H](CCC(=O)O)C(=O)N[C@@H](Cc1ccccc1)C(=O)N[C@H](C(=O)N[C@@H](CCCCN)C(=O)N[C@@H](Cc1c[nH]c2ccccc12)C(=O)N[C@@H](CC(C)C)C(=O)N[C@@H](CCC(=O)O)C(=O)N[C@@H](CC(=O)O)C(=O)N[C@@H](CCC(=O)O)C(=O)N1CCC[C@H]1C(=O)N[C@@H](CCCCN)C(=O)N[C@@H](CO)C(=O)N[C@@H](CCCCN)C(=O)N[C@@H](CO)C(=O)N1CCC[C@H]1C(=O)N1CCC[C@H]1C(=O)N1CCC[C@H]1C(=O)N[C@@H](CO)C(=O)O)C(C)C` [Compound A70] (H-YSHGTFTSDYSKYLDSARAQEFVKWLEDEPKSKSPPPS-OH; N-terminus assumed), the EC50 at human GCGR (Table 3) is 0.001 nM; at human GLP-1R (setting [3]) it was greater than 1 nM. Besides, in the data set “in vivo”, the clearance came to 1.25 L/h/kg.
Turning to `CC(C)C[C@H](NC(=O)[C@H](Cc1ccc(O)cc1)NC(=O)[C@H](CCCCN)NC(=O)[C@H](CO)NC(=O)[C@H](Cc1ccc(O)cc1)NC(=O)[C@H](CC(=O)O)NC(=O)[C@H](CO)NC(=O)[C@@H](NC(=O)[C@H](Cc1ccccc1)NC(=O)[C@@H](NC(=O)CNC(=O)[C@H](Cc1c[nH]cn1)NC(=O)[C@H](CO)NC(=O)[C@@H](N)Cc1ccc(O)cc1)[C@@H](C)O)[C@@H](C)O)C(=O)N[C@@H](CC(=O)O)C(=O)N[C@@H](CO)C(=O)N[C@@H](C)C(=O)N[C@@H](CCCNC(=N)N)C(=O)N[C@@H](C)C(=O)N[C@@H](CCC(N)=O)C(=O)N[C@@H](CCC(=O)O)C(=O)N[C@@H](Cc1ccccc1)C(=O)N[C@H](C(=O)N[C@@H](CCCCN)C(=O)N[C@@H](Cc1c[nH]c2ccccc12)C(=O)N[C@@H](CC(C)C)C(=O)N[C@@H](CCC(=O)O)C(=O)N[C@@H](CC(=O)O)C(=O)N[C@@H](CCC(=O)O)C(=O)N1CCC[C@H]1C(=O)N[C@@H](CCCCN)C(=O)N[C@@H](CO)C(=O)N[C@@H](CCCCN)C(=O)N[C@@H](CO)C(=O)N1CCC[C@H]1C(=O)N1CCC[C@H]1C(=O)N1CCC[C@H]1C(=O)N[C@@H](CO)C(N)=O)C(C)C` [Compound A73] (H-YSHGTFTSDYSKYLDSARAQEFVKWLEDEPKSKSPPPS-NH2; N-terminus assumed), the EC50 on human GCGR (Table 3) is 0.002 nM; on human GLP-1R (setting [3]), greater than 1 nM. Further, in “in vivo”, the clearance stood at 1.38 L/h/kg.
For `CC(C)C[C@H](NC(=O)[C@H](Cc1ccc(O)cc1)NC(=O)[C@H](CCCCN)NC(=O)[C@H](CO)NC(=O)[C@H](Cc1ccc(O)cc1)NC(=O)[C@H](CC(=O)O)NC(=O)[C@H](CO)NC(=O)[C@@H](NC(=O)[C@H](Cc1ccccc1)NC(=O)[C@@H](NC(=O)CNC(=O)[C@H](Cc1c[nH]cn1)NC(=O)[C@H](CO)NC(=O)[C@@H](N)Cc1ccc(O)cc1)[C@@H](C)O)[C@@H](C)O)C(=O)N[C@@H](CC(=O)O)C(=O)NC(C)(C)C(=O)N[C@@H](C)C(=O)N[C@@H](CCCNC(=N)N)C(=O)N[C@@H](C)C(=O)N[C@@H](CCC(N)=O)C(=O)N[C@@H](CCC(=O)O)C(=O)N[C@@H](Cc1ccccc1)C(=O)N[C@H](C(=O)NC(C)(C)C(=O)N[C@@H](Cc1c[nH]c2ccccc12)C(=O)N[C@@H](CC(C)C)C(=O)N[C@@H](CCC(=O)O)C(=O)N[C@@H](CC(=O)O)C(=O)N[C@@H](CCC(=O)O)C(=O)N1CCC[C@H]1C(=O)N[C@@H](CO)C(=O)N[C@@H](CO)C(=O)NCC(=O)N[C@@H](C)C(=O)N1CCC[C@H]1C(=O)N1CCC[C@H]1C(=O)N1CCC[C@H]1C(=O)N[C@@H](CO)C(=O)O)C(C)C` [Compound A103] (H-YSHGTFTSDYSKYLD[Aib]ARAQEFV[Aib]WLEDEPSSGAPPPS-OH; N-terminus assumed), the solubility in data set [1] is greater than 200 mg/mL. Moreover, the EC50 on human GCGR (Table 2B) was 0.00126 nM; on human GLP-1R (setting [3]) it was greater than 1 nM; at human GLP-1R (hGLP1 pEC50 (cAMP) mean (n = 3): 11 point curve starting at 1 nM, Table 2B), greater than 1 nM. The “hGCGR pEC50 (cAMP mean (n = 3): 11 point curve starting at 1 nM)” value on human GCGR (Table 3) worked out at 11.9. This molecule displayed a clearance in the data set “in vivo” of 1.71 L/h/kg.
Molecule `CCCCCCCCCCCCCCCC(=O)N[C@@H](CCC(=O)NCCCC[C@H](NC(=O)[C@H](CC(=O)O)NC(=O)[C@H](CC(C)C)NC(=O)[C@H](Cc1ccc(O)cc1)NC(=O)[C@H](CCCCN)NC(=O)[C@H](CO)NC(=O)[C@H](Cc1ccc(O)cc1)NC(=O)[C@H](CC(=O)O)NC(=O)[C@H](CO)NC(=O)[C@@H](NC(=O)[C@H](Cc1ccccc1)NC(=O)[C@@H](NC(=O)CNC(=O)[C@H](Cc1c[nH]cn1)NC(=O)[C@H](CO)NC(=O)[C@@H](N)Cc1ccc(O)cc1)[C@@H](C)O)[C@@H](C)O)C(=O)N[C@@H](CCCCN)C(=O)N[C@@H](Cc1ccc(O)cc1)C(=O)N[C@@H](C)C(=O)N[C@@H](CCC(N)=O)C(=O)N[C@@H](CCC(=O)O)C(=O)N[C@@H](Cc1ccccc1)C(=O)N[C@H](C(=O)NC(C)(C)C(=O)N[C@@H](Cc1c[nH]c2ccccc12)C(=O)N[C@@H](CC(C)C)C(=O)N[C@@H](CCC(=O)O)C(=O)N[C@@H](CC(=O)O)C(=O)N[C@@H](CCC(=O)O)C(=O)N1CCC[C@H]1C(=O)N[C@@H](CO)C(=O)N[C@@H](CO)C(=O)NCC(=O)N[C@@H](C)C(=O)N1CCC[C@H]1C(=O)N1CCC[C@H]1C(=O)N1CCC[C@H]1C(=O)N[C@@H](CO)C(=O)O)C(C)C)C(=O)O` [Compound B3] had a clearance in data set [2] of 1.13 L/h/kg. The same molecule showed a half-life in data set [2] of 1.79 h. In addition, the EC50 at human GCGR (read-out: GluR pEC50 (converted)) was 0.00398 nM; at human GLP-1R (Table 7, GLP-1R, read-out: GLP-1R pEC50 (converted)), greater than 1000 nM.

By clearance is commonly meant a measure of how efficiently the substance is removed, as volume per time. Low readings indicate a low capacity for elimination, high ones a high capacity for elimination. Usually solubility stands for the concentration that dissolves in the medium under given conditions. Lower therefore signals a poorly soluble substance. A word on the half-life: it is the time in which the quantity being followed falls by half.
